Reference: the supplement of paper PMC8960247
± gives the standard error.

Legend:
621-102 (TSC2-deficient) [1] = assay: relative viability vs DMSO; higher = less cytotoxic; details: serum: 10% FBS, 72 h
621-103 (TSC2-rescued) = assay: as above; details: serum: 10% FBS, 72 h
621-102 (TSC2-deficient) [2] = assay: relative viability vs DMSO (fraction); higher = less cytotoxic; details: serum: 0.1% FBS, 72 h
UMB1949 (TSC2-deficient) = assay: as above; details: serum: 0.1% FBS, 72 h;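 also: renal angiomyolipoma cell lines screened in 384-well plates, viability normalized per plate to DMSO-treated cells, each plate carrying 50 nM rapamycin and 1 µM staurosporine controls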

SMILES	relative viability (621-102 (TSC2-deficient) [1]; 0.0001 µM)	relative viability (621-102 (TSC2-deficient) [1]; 0.001 µM)	relative viability (621-102 (TSC2-deficient) [1]; 0.01 µM)	relative viability (621-102 (TSC2-deficient) [1]; 0.1 µM)	relative viability (621-102 (TSC2-deficient) [1]; 1 µM)	relative viability (621-102 (TSC2-deficient) [1]; 10 µM)	relative viability (621-103 (TSC2-rescued); 0.0001 µM)	relative viability (621-103 (TSC2-rescued); 0.001 µM)	relative viability (621-103 (TSC2-rescued); 0.01 µM)	relative viability (621-103 (TSC2-rescued); 0.1 µM)	relative viability (621-103 (TSC2-rescued); 1 µM)	relative viability (621-103 (TSC2-rescued); 10 µM)	relative viability (621-102 (TSC2-deficient) [2]; 0.0128 nM)	relative viability (621-102 (TSC2-deficient) [2]; 0.064 nM)	relative viability (621-102 (TSC2-deficient) [2]; 0.32 nM)	relative viability (621-102 (TSC2-deficient) [2]; 1.6 nM)	relative viability (621-102 (TSC2-deficient) [2]; 8 nM)	relative viability (621-102 (TSC2-deficient) [2]; 40 nM)	relative viability (621-102 (TSC2-deficient) [2]; 200 nM)	relative viability (621-102 (TSC2-deficient) [2]; 1000 nM)	relative viability (621-102 (TSC2-deficient) [2]; 5000 nM)	relative viability (UMB1949 (TSC2-deficient); 0.0128 nM)	relative viability (UMB1949 (TSC2-deficient); 0.064 nM)	relative viability (UMB1949 (TSC2-deficient); 0.32 nM)	relative viability (UMB1949 (TSC2-deficient); 1.6 nM)	relative viability (UMB1949 (TSC2-deficient); 8 nM)	relative viability (UMB1949 (TSC2-deficient); 40 nM)	relative viability (UMB1949 (TSC2-deficient); 200 nM)	relative viability (UMB1949 (TSC2-deficient); 1000 nM)	relative viability (UMB1949 (TSC2-deficient); 5000 nM)
Cc1cc(Nc2cc(N3CCN(C)CC3)nc(Sc3ccc(NC(=O)C4CC4)cc3)n2)n[nH]1 [VX-680 (MK-0457)]	101 ± 4.7%	90.4 ± 2.4%	98.8 ± 1.7%	81.4 ± 0.96%	76 ± 2.1%	47.8 ± 0.98%	99.1 ± 1.1%	103 ± 1.9%	100 ± 1.9%	94.8 ± 6.2%	78.2 ± 2%	20.4 ± 0.69%	1.08	1	0.776	0.176	0.0382	0.0452	0.0422	0.0108	0.00299	0.947	0.818	0.872	0.0803	0.0315	0.0297	0.0316	0.0244	0.0016
c1cncc(CN2CCC(n3ncc4c(N5CCOCC5)nc(-c5ccc6[nH]ccc6c5)nc43)CC2)c1 [WAY-600]	89.809 ± 0.075%	104 ± 2.2%	99.7 ± 2.1%	100 ± 1.8%	82.5 ± 1%	2.21 ± 0.054%	99.7 ± 2.6%	97.8 ± 4.8%	103 ± 3.9%	98.1 ± 1.8%	54.5 ± 2.2%	7.78 ± 0.25%	1.07	1.25	1.04	1.18	1.21	1.19	0.798	0.345	0.00768	0.882	0.972	1.04	0.972	1.02	0.933	0.892	0.354	0.00636
CCC[C@H](NC(=O)/C(C#N)=C/c1cccc(Br)n1)c1ccccc1 [WP1130]	104 ± 6%	98.3 ± 8.2%	99 ± 1.9%	100 ± 3.1%	42.6 ± 3.9%	12.9 ± 0.62%	99.84 ± 0.79%	111 ± 2.8%	109 ± 2.5%	105 ± 1.6%	65.6 ± 11%	11.4 ± 1.6%	1.37	1.16	1.59	1.27	1.4	1.62	1.11	0.0118	0.0115	1.14	0.962	1.13	1.04	1.02	1.14	0.0225	0.00218	0.00472
COCC[n+]1c2c(n(Cc3cnccn3)c1C)C(=O)c1ccccc1C2=O [YM155]	119 ± 4.4%	123 ± 2.9%	85.19 ± 0.73%	14.7 ± 0.34%	2.3 ± 0.11%	1.07 ± 0.06%	103 ± 1.1%	97.14 ± 0.26%	6.98 ± 0.72%	3.13 ± 0.25%	1.38 ± 0.11%	1.32 ± 0.092%	1.26	1.18	1.05	1.14	1.01	0.797	0.0467	0.0022	0.000631	0.913	0.906	0.926	0.0628	0.00285	0.00186	0.00176	0.000862	0.000862
